pKi: −log10 of the molar value.

Holding throughout (type): biochemical
The target of test [1] is T1, recombinant human MMP-12 (Homo sapiens, UniProt P39900).
T1 construct: purchased R&D Systems; host or cells: mouse myeloma cell line NS-40 (so in the source)
Put plainly: MMP-12 enzyme assay (FRET substrate). The procedure:
A typical MMP-12 enzyme assay employs recombinant human MMP-12 catalytic domain expressed and purified as described by Parkar A. A. et al, (2000), Protein Expression and Purification, 20:152. The purified enzyme can be used to monitor inhibitors of activity as follows: MMP-12 (50 ng/ml final concentration) is incubated for 60 minutes at room temperature with the synthetic substrate Mac-Pro-Cha-Gly-Nva-His-Ala-Dpa-NH2 in assay buffer (0.1M “Tris-HCl” (trade mark) buffer, pH 7.3 containing O.1M NaCl, 20 mM CaCl2, 0.020 mM ZnCl and 0.05% (w/v) “Brij 35” (trade mark) detergent) in the presence (5 concentrations) or absence of inhibitors. Activity is determined by measuring the fluorescence at λex 320 nm and λem 405 nm. Percent inhibition is calculated as follows: % Inhibition is equal to the (Fluorescenceplus inhibitor−Fluorescencebackground); divided by the (Fluorescenceminus inhibitor−Fluorescencebackground);
A favoured assay employs full length recombinant human MMP-12, amino acid residues 1 to 470 (Shapiro et al 1993, J Biol Chem 268:23824-23829) expressed in mouse myeloma cell line NS-40. The purified rhMMP-12 typically has the N terminal sequence L17PLNSSTSLE and an SDS-PAGE apparent molecular mass of approx. 56 kDa. Such proteins are available from R&D Systems, USA as a lyophilised 0.2 um filtered solution of 25 mM MES, 0.15M NaCl, 10 mMCaCl2, 0.15% Brij 35, pH 5.5. Auto-activation of the rhMMP-12 can be achieved by dilution to 0.05 mg/ml into TCNB buffer (50 mMTris, 10 mM CaCl2, 0.15M NaCl, 0.05% Brij 35, pH 7) and incubation at 37 degrees for 30 hours. A preferred buffer for MMP work is 50 mM Tris.HCl, pH 7.5, 200 mM Ca acetate.
Suitable FRET substrates include (7-methoxycoumarin-4-yl)acetyl-Pro-Leu-Gly-Leu-(3-(2,4-dinitrophenoyl)-L-2,3-diaminopropionyl)-Ala-Arg-NH2, commercially available from R&D Systems, USA. Typical specific activities are >500 picomol/min/ug, with rhMMP-12 measured with 10 uM of this substrate, 20 ng activated enzyme in 100 ul TCNB buffer at room temperature.
An alternative general MMP substrate is Dnp-PLGLWAD-R-NH2.
Category A indicates ≦50 nM inhibition, category B indicates 51-200 nM inhibition and category C indicates >200 nM: […]

The target of test [2] is T2, recombinant human MMP-3 (Homo sapiens, UniProt P08254).
T2 construct: purchased R&D Systems
Kind of test: MMP-3 enzyme assay (FRET substrate), selectivity versus MMP-12. Particulars: fold difference in Ki for MMP-3 compared to MMP-12. The protocol:
The activity was measured by a continuous detection of increased fluorescence intensity during 12 min. The substrate consisted of a peptide with a fluorescent donor 7-methoxycoumarin (Mca) and a quenching acceptor 2,4-dinitrophenyl group (Dpa), typically Mca-Arg-Pro-Lys-Pro-Val-Glu-Nval-Trp-Arg-Lys(Dnp)-NH2 (R&D Systems, ES002). The cleavage site by MMP-3 is the peptide bond between Glu and Nval. The compounds were tested at a range of concentrations, the enzyme concentration (MMP-3) was fixed at 400 ng/ml and the substrate concentrations was 10 μM. The MMP-3 assay used employs recombinant human MMP-3 (supplied by R&D Systems) in an assay buffer of 50 mM Tris-HCl, 200 mM calcium acetate at pH=7.5. The MMP-3 enzyme was preactivated by dilution to 0.119 mg/ml into 1 mM APMA (p-aminophenylmercuric acetate) followed by incubation at 37° C. for 24 hours. The substrate was prepared at a 100 μM stock solution in DMSO and a 96-well polypropylene plate was used for the reaction mixtures. To each well of the plate was added assay buffer 90.0 μl, enzyme (MMP-3) 0.3 μl and inhibitor 1 μl. The reactions were started by addition of substrate, 10 μl/well, to a total volume of 100 μl/well. The total concentration of DMSO was not above 1%. The assay was performed at ambient temperature. Product fluorescence ([…]) was monitored with a Thermo Labsystems Fluoroskan Ascent plate reader. The Ki was determined by Prism Software.
(§1) The selectivity for MMP-12 over MMP-3 and TACE was evaluated for a representative selection of the compounds of the invention by comparing the Ki figures obtained when tested in the corresponding enzyme assays, such as those described above. The selectivity is presented as the fold difference in Ki for TACE and MMP-3 compared to MMP-12 and is calculated as the ratio Ki(TACE)/KiMMP-12 and Ki(MMP-3)/KiMMP-12 respectively.

Test [3] has as its target T3, recombinant human TACE (Homo sapiens, UniProt P78536).
T3 construct: purchased R&D Systems
Put plainly: TACE enzyme assay (FRET substrate), selectivity versus MMP-12. The settings on record: fold difference in Ki for TACE compared to MMP-12. The procedure:
The activity was measured by a continuous detection of increased fluorescence intensity during 12 min. The substrate consisted of a peptide with a fluorescent donor 7-methoxycoumarin (Mca) and a quenching acceptor 2,4-dinitrophenyl group (Dpa), typically Mca-P-L-A-Q-A-V-Dpa-R-S-S-S-R-NH2 (R&D Systems, ES003). The cleavage site by TACE is the peptide bond between Ala and Val. The compounds were tested at a range of concentrations while the enzyme and substrate concentrations were fixed. A typical TACE assay employs recombinant human TACE (supplied by R&D Systems) in an assay buffer (25 mM Tris-HCl, pH=9.0, 2.5 μM ZnCl2, 0.005% Brij 35). The enzyme concentration (TACE) used was 100 ng/ml, the substrate was prepared at a 100 μM stock solution in DMSO and a 96-well polypropylene plate was used for the reaction mixtures. To each well of the plate was added assay buffer 90.0 μl, enzyme (TACE) 0.09 μl and inhibitor 1 μl. The reactions were started by addition of substrate 10 μl/well, giving a substrate concentration of 10 μM and a total volume of 100 μl/well. The total concentration of DMSO was not above 1%. The assay was performed at ambient temperature. Product fluorescence ([…]) was monitored with a Thermo Labsystems Fluoroskan Ascent plate reader. The Ki was determined by Prism Software.
as §1

T3 sequence (P78536 215-824): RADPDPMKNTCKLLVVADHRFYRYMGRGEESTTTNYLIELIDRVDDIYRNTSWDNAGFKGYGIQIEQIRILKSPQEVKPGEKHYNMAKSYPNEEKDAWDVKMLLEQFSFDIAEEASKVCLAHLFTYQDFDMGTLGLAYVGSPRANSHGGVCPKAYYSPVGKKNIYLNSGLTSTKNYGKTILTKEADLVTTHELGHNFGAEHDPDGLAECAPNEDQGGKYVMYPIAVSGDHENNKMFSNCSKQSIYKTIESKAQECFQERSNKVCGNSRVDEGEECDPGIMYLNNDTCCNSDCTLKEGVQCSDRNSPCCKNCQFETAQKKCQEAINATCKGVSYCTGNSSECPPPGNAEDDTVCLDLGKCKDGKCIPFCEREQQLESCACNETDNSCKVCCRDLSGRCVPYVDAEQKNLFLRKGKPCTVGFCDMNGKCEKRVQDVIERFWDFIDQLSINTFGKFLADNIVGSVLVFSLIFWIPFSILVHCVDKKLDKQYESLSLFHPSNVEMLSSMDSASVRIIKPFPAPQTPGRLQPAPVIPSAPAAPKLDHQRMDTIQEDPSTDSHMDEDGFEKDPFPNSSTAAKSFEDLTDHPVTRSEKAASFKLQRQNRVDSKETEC
T2 sequence (P08254 100-477): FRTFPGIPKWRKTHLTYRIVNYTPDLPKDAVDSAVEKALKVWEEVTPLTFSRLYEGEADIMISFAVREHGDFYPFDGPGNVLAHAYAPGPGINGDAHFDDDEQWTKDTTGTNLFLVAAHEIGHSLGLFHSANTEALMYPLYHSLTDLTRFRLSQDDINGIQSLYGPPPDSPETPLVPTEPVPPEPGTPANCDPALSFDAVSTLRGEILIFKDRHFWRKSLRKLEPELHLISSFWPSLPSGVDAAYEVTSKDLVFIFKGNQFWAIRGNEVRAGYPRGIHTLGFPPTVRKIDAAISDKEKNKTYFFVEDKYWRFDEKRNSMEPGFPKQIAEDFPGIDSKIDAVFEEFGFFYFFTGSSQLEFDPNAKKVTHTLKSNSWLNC
T1 sequence (P39900 106-470): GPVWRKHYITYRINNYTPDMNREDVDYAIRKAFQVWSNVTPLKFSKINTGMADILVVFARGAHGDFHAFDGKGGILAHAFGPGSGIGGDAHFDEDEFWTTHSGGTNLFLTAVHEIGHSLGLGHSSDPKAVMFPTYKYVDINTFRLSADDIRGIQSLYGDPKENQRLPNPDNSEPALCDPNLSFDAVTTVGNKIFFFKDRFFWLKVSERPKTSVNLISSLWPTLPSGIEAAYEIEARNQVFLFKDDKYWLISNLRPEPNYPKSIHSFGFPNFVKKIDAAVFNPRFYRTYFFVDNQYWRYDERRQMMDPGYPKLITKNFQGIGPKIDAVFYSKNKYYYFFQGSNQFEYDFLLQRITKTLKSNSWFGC

With `Cc1ccc(CCC2NC(=O)N(C(C(=O)NO)C(C)C)C2=O)cc1` (stereo not drawn) [Example 30, 2-[2,5-Dioxo-4-(2-p-tolylethyl)-imidazolidin-1-yl]-N-hydroxy-3-methyl-butyramide], the pKi in test [1] was not below 7.30. Further, the “Ki(MMP-3)/Ki(MMP-12)” value in test [2] is 75. Moreover, in test [3], the “Ki(TACE)/Ki(MMP-12)” value is reported as 2200.

`CC(C)[C@H](C(=O)NO)N1C(=O)N[C@@H](CCc2ccccc2F)C1=O` [Example 36, 2-{4-[2-(2-Fluorophenyl)-ethyl]-2,5-dioxoimidazolidin-1-yl}-N-hydroxy-3-methylbutyramide]: the pKi in test [1] was not below 7.30. In addition, the “Ki(MMP-3)/Ki(MMP-12)” value in test [2] is given as 240. Moreover, the “Ki(TACE)/Ki(MMP-12)” value in test [3] stood at 280.

For `CC(C)[C@H](C(=O)NO)N1C(=O)N[C@@H](CCc2ccc(F)cc2)C1=O` [Example 38, 2-{4-[2-(4-Fluoro-phenyl)-ethyl]-2,5-dioxoimidazolidin-1-yl}-N-hydroxy-3-methylbutyramide], the pKi in test [1] was not below 7.30. Besides, the “Ki(MMP-3)/Ki(MMP-12)” value in test [2] amounted to 150. Moreover, the “Ki(TACE)/Ki(MMP-12)” value in test [3] is recorded as 390.

The values are drawn from patent publication US8338471B2, “(2,5-dioxoimidazolidin-i-yl)-n-hydroxy-acetamides as metalloproteinase inhibitors” (Medivir AB, priority 2005, dated 2012).
